In patent publication US8637268B2, “Determination of von Willebrand Factor cleavage by ADAMTS13” (Puget Sound Blood Center, priority 2010, dated 2014):

Assays:
Assay type in all cases: biochemical
VWF = molecular target: T1, VWF (Homo sapiens, UniProt P04275); assay: Cleavage of VWF by endogenous ADAMTS13 in citrated pooled normal plasma, multimer pattern on agarose gel
T1 construct: Cleavage of VWF by ADAMTS13 in citrated pooled normal plasma; tissue Precision BioLogic; host or cells: citrated pooled normal plasma, diluted 10-fold
T1 sequence (P04275 764-2813 limits assumed): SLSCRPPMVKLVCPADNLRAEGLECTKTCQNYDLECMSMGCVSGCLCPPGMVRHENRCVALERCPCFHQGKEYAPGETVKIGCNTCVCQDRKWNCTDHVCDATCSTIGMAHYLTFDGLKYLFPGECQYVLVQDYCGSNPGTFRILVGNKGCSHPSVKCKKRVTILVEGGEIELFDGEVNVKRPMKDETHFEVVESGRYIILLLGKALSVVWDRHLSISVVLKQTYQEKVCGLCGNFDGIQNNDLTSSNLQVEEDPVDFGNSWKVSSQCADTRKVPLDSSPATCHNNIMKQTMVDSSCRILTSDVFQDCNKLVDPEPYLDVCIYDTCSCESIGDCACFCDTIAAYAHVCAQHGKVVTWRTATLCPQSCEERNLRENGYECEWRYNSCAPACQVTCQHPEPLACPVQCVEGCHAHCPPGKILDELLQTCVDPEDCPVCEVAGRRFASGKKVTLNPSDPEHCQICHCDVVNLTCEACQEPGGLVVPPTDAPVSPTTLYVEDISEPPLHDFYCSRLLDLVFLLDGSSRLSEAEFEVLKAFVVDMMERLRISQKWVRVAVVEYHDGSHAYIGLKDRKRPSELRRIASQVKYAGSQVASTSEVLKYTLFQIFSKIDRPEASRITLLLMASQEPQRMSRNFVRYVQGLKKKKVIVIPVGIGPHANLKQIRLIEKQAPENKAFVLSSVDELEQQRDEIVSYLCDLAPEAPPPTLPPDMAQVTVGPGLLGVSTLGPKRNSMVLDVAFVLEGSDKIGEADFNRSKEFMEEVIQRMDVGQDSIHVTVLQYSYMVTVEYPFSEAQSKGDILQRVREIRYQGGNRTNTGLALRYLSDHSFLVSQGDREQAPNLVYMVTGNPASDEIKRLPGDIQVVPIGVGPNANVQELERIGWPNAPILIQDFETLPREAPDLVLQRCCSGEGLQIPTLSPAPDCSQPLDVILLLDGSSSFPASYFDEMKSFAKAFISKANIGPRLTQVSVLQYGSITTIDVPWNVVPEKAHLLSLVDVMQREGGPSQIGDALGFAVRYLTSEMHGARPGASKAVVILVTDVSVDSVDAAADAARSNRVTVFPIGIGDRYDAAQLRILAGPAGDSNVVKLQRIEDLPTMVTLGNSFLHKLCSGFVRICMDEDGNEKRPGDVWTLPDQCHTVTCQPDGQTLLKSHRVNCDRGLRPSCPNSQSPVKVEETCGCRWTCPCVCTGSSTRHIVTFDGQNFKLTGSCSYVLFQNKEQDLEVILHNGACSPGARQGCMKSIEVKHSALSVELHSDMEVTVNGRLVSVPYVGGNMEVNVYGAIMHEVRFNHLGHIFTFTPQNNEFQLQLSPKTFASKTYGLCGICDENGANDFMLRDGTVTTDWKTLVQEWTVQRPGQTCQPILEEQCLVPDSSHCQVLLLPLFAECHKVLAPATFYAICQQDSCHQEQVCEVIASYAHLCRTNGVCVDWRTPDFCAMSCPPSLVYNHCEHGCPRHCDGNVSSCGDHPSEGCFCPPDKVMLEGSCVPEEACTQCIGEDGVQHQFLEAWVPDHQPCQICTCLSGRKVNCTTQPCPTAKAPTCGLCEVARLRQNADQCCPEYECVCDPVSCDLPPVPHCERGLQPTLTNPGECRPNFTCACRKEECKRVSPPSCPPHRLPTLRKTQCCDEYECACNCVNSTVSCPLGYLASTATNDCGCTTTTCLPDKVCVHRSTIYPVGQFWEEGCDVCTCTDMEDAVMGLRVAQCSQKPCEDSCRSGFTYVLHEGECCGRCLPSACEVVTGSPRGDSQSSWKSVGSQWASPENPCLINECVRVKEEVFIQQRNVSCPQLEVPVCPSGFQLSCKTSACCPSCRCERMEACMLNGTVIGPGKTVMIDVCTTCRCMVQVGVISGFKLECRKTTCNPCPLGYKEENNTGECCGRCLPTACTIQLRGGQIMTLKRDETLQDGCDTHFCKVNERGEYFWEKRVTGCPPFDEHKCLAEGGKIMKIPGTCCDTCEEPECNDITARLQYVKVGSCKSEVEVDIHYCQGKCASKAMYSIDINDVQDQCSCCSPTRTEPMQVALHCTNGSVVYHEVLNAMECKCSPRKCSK
Protocol: Cleavage of VWF by ADAMTS13 in citrated pooled normal plasma was examined by incubating 10-fold diluted plasma at 37° C. for various times. Monoclonal ADAMTS13 antibody or control antibody (final concentration: 20 μg/ml) was added to an aliquot of the diluted plasma. ADAMTS13 cleavage was stopped at indicated times with EDTA.
(§1) The VWF multimer pattern was evaluated by 1.5% agarose gel electrophoresis followed by Western blotting with a HRP-conjugated polyclonal VWF antibody (Dako, Inc., Carpinteria, Calif.) previously described (Chen et al., J Clin Invest, Submitted (2010)).

[1] = molecular target: T2, short A2 (Met1473-Gly1674) (Homo sapiens, UniProt P04275); assay: ADAMTS13 cleavage of recombinant VWF fragment short A2 (SDS-PAGE, western blotting); conditions: 1.5 M urea or 1.5 mg/ml ristocetin, 37° C., 5 hr (FIG. 4)
T2 construct: short A2 (Met1473-Gly1674); made in house; host or cells: HEK293 Tet-On cells
T2 sequence (P04275 1473-1674): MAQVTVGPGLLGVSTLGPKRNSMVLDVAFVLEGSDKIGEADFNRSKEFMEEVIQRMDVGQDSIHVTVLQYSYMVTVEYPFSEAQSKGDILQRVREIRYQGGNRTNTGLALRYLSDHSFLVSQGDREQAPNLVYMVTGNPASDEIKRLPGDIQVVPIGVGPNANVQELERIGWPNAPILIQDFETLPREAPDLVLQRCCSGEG
Description: (§2) Recombinant ADAMTS13 (Ala75-Thr1427) and VWF fragments A1A2A3 (Asp1261-Ile1878), long A2 (Asp1459-Gly1674), and short A2 (Met1473-Gly1674) were expressed as fusion proteins with the pNBioSec vector (Mize et al., Protein Expr Purif, 57(2):280-289 (2008)) in HEK293 Tet-On cells as previously described (Chen et al., Blood, 115(3):706-712 (2010)). In this expression system, recombinant proteins were secreted with dual tags: an N-terminal biotin-tag and a C-terminal protein C epitope tag. Serum-free-cell-culture medium containing the secreted recombinant proteins was concentrated 10-fold by centrifugation over an Ultra-10K filter and desalted over Sephadex G25.
(§3) Plasma VWF was purified from cryoprecipitate as described previously (Chen et al., Blood, 115(3):706-712 (2010)). Cleavage of recombinant VWF fragments by ADAMTS13 was carried out at 37° C. for 5 hours with or without modulators. The reactions were stopped by EDTA (final concentration 10 mM). Cleavage products were analyzed by electrophoresis in 4-15% gradient polyacrylamide gels (Bio-Rad Laboratories, Hercules, Calif.) after reduction. […]
(§4) Cleavage of recombinant VWF fragments (1 μg/ml) by ADAMTS13 (0.15 μg/ml) was carried out at 37° C. for 5 hours in the presence of either 1.5 M urea, or 1.5 mg/ml ristocetin. […] Cleavage products were analyzed by electrophoresis in 4-15% gradient polyacrylamide gels after reduction. […]

A1A2A3 (Asp1261-Ile1878) = molecular target: T3, A1A2A3 (Asp1261-Ile1878) (Homo sapiens, UniProt P04275); assay: ADAMTS13 cleavage of recombinant VWF fragment A1A2A3 (SDS-PAGE, western blotting); conditions: for ADAMTS13 cleavage of A1A2A3: 37° C., 5 hr (FIG. 2)
T3 construct: VWF fragments A1A2A3 (Asp1261-Ile1878); made in house; host or cells: HEK293 Tet-On cells
T3 sequence (P04275 1261-1878, one chain of several): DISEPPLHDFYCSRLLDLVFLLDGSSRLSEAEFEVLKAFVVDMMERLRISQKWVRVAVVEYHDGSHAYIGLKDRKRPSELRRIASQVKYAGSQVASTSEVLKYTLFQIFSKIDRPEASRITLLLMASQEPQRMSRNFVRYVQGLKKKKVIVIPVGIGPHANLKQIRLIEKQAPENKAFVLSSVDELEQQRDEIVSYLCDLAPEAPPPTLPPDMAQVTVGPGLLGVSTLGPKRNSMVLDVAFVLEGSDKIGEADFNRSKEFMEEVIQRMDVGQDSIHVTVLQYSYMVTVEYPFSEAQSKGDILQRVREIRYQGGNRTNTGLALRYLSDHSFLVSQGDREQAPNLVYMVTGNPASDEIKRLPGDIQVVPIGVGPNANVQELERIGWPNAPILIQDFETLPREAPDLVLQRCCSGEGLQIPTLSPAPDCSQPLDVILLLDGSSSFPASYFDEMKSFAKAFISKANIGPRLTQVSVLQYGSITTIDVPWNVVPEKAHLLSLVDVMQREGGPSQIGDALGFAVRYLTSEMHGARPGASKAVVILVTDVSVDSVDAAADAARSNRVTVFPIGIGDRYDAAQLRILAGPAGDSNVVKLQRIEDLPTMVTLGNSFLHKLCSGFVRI
Description: as §2
(§5) Plasma VWF was purified from cryoprecipitate as described previously (Chen et al., Blood, 115(3):706-712 (2010)). Cleavage of recombinant VWF fragments by ADAMTS13 was carried out at 37° C. for 5 hours with or without modulators. The reactions were stopped by EDTA (final concentration 10 mM). Cleavage products were analyzed by electrophoresis in 4-15% gradient polyacrylamide gels (Bio-Rad Laboratories, Hercules, Calif.) after reduction. Cleavage products were transferred onto nitrocellulose membranes, blocked with 1% albumin in Tris-buffered saline with 0.05% Tween-20, probed with HRP-conjugated streptavidin (Thermal Scientific, Rockford, Ill.), and visualized with the Immobilon Western HRP substrate (Millipore).
(§6) Cleavage of recombinant VWF fragments (1 μg/ml) by ADAMTS13 (0.15 μg/ml) was carried out at 37° C. for 5 hours in the presence of either 1.5 M urea, or 1.5 mg/ml ristocetin. The reactions were stopped by EDTA. Cleavage products were analyzed by electrophoresis in 4-15% gradient polyacrylamide gels after reduction. Cleavage products were transferred onto nitrocellulose membranes, blocked with 1% albumin in Tris-buffered saline with 0.05% Tween-20, probed with HRP-conjugated streptavidin, and visualized with the Immobilon Western HRP substrate.

[2] = molecular target: T4, purified multimeric plasma VWF (Homo sapiens, UniProt P04275); assay: ADAMTS13 cleavage of purified multimeric plasma VWF, multimer pattern on agarose gel; conditions: 0.75 and 1.0 mg/ml ristocetin, 37° C., under stasis (FIG. 1A)
T4 construct: Plasma VWF was purified from cryoprecipitate as described previously; from tissue; host or cells: plasma cryoprecipitate (VWF); HEK293 Tet-On cells (ADAMTS13)
T4 sequence (P04275 764-2813 limits assumed): as the sequence (P04275 764-2813 limits assumed) above
Protocol: Cleavage of purified VWF (2 μg/ml) by recombinant ADAMTS13 (0.4 μg/ml) was performed at 37° C. in the absence or presence of urea or ristocetin. The reactions were stopped at the indicated times with EDTA (final concentration 10 mM).
as §1

A1A2 fragment = assay: ADAMTS13 cleavage of recombinant VWF fragment A1A2 (SDS-PAGE, western blotting)
A1A2 fragment, sequence (P04275 1261-1674 D1472H limits assumed): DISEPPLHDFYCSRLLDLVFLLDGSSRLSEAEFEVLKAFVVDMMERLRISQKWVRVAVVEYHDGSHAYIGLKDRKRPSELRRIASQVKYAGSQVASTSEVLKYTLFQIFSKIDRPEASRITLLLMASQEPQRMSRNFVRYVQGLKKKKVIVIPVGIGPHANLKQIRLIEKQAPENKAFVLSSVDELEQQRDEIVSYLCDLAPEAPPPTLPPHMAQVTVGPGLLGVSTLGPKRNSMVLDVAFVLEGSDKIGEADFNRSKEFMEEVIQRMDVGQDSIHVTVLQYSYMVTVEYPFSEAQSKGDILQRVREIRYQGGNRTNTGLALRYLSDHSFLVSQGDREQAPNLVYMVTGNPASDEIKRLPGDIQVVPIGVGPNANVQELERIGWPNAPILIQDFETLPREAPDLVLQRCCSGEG
Protocol: as §5, §6

[3] = molecular target: T5, long A2 (Asp1459-Gly1674) (Homo sapiens, UniProt P04275, D1472H); assay: ADAMTS13 cleavage of recombinant VWF fragment long A2 (SDS-PAGE, western blotting); conditions: in the presence of ristocetin, 37° C., 5 hr (FIG. 3)
T5 construct: long A2 (Asp1459-Gly1674); made in house; host or cells: HEK293 Tet-On cells
T5 sequence (P04275 1459-1674 D1472H): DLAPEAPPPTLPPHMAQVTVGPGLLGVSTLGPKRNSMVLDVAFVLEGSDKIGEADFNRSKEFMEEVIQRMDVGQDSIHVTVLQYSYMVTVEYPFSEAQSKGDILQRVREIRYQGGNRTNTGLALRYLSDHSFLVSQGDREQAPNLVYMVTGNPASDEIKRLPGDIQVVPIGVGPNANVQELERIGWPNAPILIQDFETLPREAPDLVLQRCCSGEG
Description: as §2, §3, §4

Multimeric VWF = molecular target: T6, Multimeric VWF (Homo sapiens, UniProt P04275); assay: Detection of methionine oxidation in VWF by mass spectrometry (HOCl-generating system MPO plus H2O2)
T6 construct: purified, multimeric VWF from plasma; from tissue
T6 sequence (P04275 764-2813 limits assumed): as the sequence (P04275 764-2813 limits assumed) above
Protocol: Multimeric VWF was incubated with an HOC1-generating system containing 25 nM MPO plus H2O2 at various concentrations in PBS (pH 7.4) at 37° C. for 1 hr in the presence or absence of 1.0 mg/ml ristocetin. The oxidation reaction was stopped by the addition of excess free methionine. The oxidized protein was digested with trypsin and the peptides analyzed by nano liquid chromatography-electrospray ionization-tandem mass spectrometry (nanoLC-ESI-MS/MS).

[4] = 1.0 mg/ml ristocetin versus buffer, 25 nM MPO plus H2O2, 1 hr (FIG. 6A)

O=C(O)CN(CCN(CC(=O)O)CC(=O)O)CC(=O)O [EDTA]
effect on proteolysis of VWF (VWF; antibody 20 μg/ml, EDTA 10 mM per methods): inhibited

NC(N)=O [urea]
ADAMTS13 cleavage of short A2 (lacking Asp1459-His1472) [1]: cleaved it normally

CN[C@H](CC(C)C)C(=O)N[C@H]1C(=O)N[C@@H](CC(N)=O)C(=O)N[C@H]2C(=O)N[C@H]3C(=O)N[C@H](C(=O)N[C@H](C(=O)O)c4cc(O)cc(O)c4-c4cc3ccc4O)[C@H](O)c3ccc(c(Cl)c3)Oc3cc2cc(c3O[C@@H]2O[C@H](CO)[C@@H](O)[C@H](O)[C@H]2O[C@H]2C[C@](C)(N)[C@H](O)[C@H](C)O2)Oc2ccc(cc2Cl)[C@H]1O [vancomycin]
ADAMTS13 cleavage of A1A2A3 (A1A2A3 (Asp1261-Ile1878)): not mimicked

ristocetin
effect on ability of recombinant ADAMTS13 to cleave purified multimeric plasma VWF [2]: accelerated | effect on ability of endogenous ADAMTS13 to cleave VWF in diluted plasma (VWF; 1.0 mg/ml ristocetin, 10-fold diluted plasma, 37° C., compared with 1.5 M urea (FIG. 1B)): enhanced | ADAMTS13 cleavage of A1A2A3 (A1A2A3 (Asp1261-Ile1878)): induced ADAMTS13 to cleave | minimum ristocetin concentration producing maximum proteolysis (A1A2A3 (Asp1261-Ile1878); A1A2A3, 37° C., 5 hr, increasing concentrations (FIG. 2B)): approximately 0.8 mg/ml | efficiency of enhancing ADAMTS13 cleavage, A1A2 fragment versus long A2 domain (A1A2 fragment; FIG. 3): more efficiently in the A1A2 fragment | ADAMTS13 cleavage of A1A2 fragment (A1A2 fragment; in the presence of ristocetin, 37° C., 5 hr (FIG. 3)): able to cleave | ADAMTS13 cleavage of long A2 fragment [3]: able to cleave | ADAMTS13 cleavage of short A2 (lacking Asp1459-His1472) [1]: unable to cleave | oxidation of Met1521 (methionine sulfoxide) in the A2 domain (Multimeric VWF; [4]): more oxidized | oxidation of Met1606 (methionine sulfoxide) in the A2 domain (Multimeric VWF; [4]): more oxidized | extent of methionine oxidation in the A1 domain (Multimeric VWF; ristocetin versus buffer, 25 nM MPO and 50 μM H2O2 (FIG. 6B)): much less than in the A2 domain
